Assays:
[1] = molecular target: Lysine-specific histone demethylase 1A (Homo sapiens, UniProt O60341); test: Inhibition of human recombinant LSD1 using fluorogenic ADHP as substrate preincubated for 30 mins followed by substrate addition measured after 10 mins by fluorescence assay
A549 = test: Antiproliferative activity against human A549 cells overexpressing LSD1 assessed as reduction in cell viability measured after 72 hrs by MTT assay; settings: A549, 72 h
U-87 MG = test: Antiproliferative activity against human U87MG cells assessed as reduction in cell viability measured after 72 hrs by MTT assay
[2] = molecular target: T1, Amine oxidase [flavin-containing] A (Homo sapiens, UniProt P21397); test: Inhibition of human recombinant MAO-A expressed in baculovirus infected BTI cells using luciferin derived luminogenic substrate measured after 20 mins by luminescence assay
T1 sequence (P21397 whole entry): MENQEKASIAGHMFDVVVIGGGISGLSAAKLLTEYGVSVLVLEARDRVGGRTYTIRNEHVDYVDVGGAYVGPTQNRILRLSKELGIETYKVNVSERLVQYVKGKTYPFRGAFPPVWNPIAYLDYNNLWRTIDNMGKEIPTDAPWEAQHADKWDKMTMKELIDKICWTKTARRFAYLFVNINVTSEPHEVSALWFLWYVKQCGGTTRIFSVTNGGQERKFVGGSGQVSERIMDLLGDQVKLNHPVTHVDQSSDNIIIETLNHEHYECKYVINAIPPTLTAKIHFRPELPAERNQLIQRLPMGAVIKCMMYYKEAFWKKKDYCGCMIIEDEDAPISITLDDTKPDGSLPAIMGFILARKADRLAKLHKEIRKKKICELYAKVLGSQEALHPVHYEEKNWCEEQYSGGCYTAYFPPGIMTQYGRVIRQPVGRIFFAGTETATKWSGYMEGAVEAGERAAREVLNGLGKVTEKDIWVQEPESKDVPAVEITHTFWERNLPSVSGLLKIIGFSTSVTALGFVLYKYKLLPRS

[3] = molecular target: T2, Amine oxidase [flavin-containing] B (Homo sapiens, UniProt P27338); test: Inhibition of human recombinant MAO-B expressed in baculovirus infected BTI cells using luciferin derived luminogenic substrate measured after 20 mins by luminescence assay
T2 sequence (P27338 whole entry): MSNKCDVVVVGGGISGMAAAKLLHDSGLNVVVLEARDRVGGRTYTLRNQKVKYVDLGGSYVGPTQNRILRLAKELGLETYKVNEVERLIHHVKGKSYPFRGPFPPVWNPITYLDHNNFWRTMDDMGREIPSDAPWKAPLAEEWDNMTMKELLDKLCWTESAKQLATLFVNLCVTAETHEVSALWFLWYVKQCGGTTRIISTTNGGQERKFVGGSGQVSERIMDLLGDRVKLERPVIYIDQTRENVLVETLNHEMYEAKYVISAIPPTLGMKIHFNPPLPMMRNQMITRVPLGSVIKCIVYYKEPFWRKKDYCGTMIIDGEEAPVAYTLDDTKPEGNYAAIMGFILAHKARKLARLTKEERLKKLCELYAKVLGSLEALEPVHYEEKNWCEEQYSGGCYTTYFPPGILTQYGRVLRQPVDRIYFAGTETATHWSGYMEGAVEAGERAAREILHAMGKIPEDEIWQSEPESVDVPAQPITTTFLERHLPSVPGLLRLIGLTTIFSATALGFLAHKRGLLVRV

| SMILES | IC50 [1] | IC50 (A549) | IC50 (U-87 MG) | IC50 [2] | IC50 [3] |
| --- | --- | --- | --- | --- | --- |
| COC(=O)Cc1ccc(NC(=O)/C=C/c2ccc(OC(C)=O)c(OC)c2)cc1 | > 50 µM |  |  |  |  |
| O=C(/C=C/c1ccc(F)cc1)Nc1cccc(OCC2CCNCC2)c1 | > 50 µM |  |  |  |  |
| COc1cc(/C=C/C(=O)Nc2ccc(CC(=O)NN)cc2)ccc1O |  | 30.3 µM | 49.3 µM |  |  |
| N#Cc1ccc(/C=C/C(=O)Nc2cccc(OCC3CCNCC3)c2)cc1 | > 50 µM |  |  |  |  |
| O=C(/C=C/c1ccc(O)cc1)Nc1cccc(OCC2CCNCC2)c1 |  | 9.33 µM | > 50 µM | > 50 µM | > 50 µM |
| COc1cc(/C=C/C(=O)Nc2ccc(NC(=N)N)cc2)ccc1O |  | > 50 µM | > 50 µM |  |  |
| COc1cc(/C=C/C(=O)Nc2ccc(C(=O)NO)cc2)ccc1O |  | 32.5 µM | > 50 µM |  |  |
| COc1cc(/C=C/C(=O)CC(=O)/C=C/c2ccc(O)c(OC)c2)ccc1O [CURCUMIN] | 9.6 µM |  |  |  |  |
| COc1cc(/C=C/C(=O)Nc2cccc(COc3ccc(OC4CCNCC4)cc3)c2)ccc1O |  | 28.5 µM | > 50 µM |  |  |
| O=C(/C=C/c1cccc(C(F)(F)F)c1)Nc1cccc(OCC2CCNCC2)c1 | > 50 µM |  |  |  |  |
| COc1cc(/C=C/C(=O)Nc2ccc(N)cc2)ccc1O |  | > 50 µM | > 50 µM |  |  |
| COc1ccc(/C=C/C(=O)Nc2cccc(OCC3CCNCC3)c2)cc1OC | > 50 µM |  |  |  |  |
| COc1cc(/C=C/C(=O)Nc2cccc(OCC3CCNCC3)c2)ccc1O |  | 24.5 µM | 31 µM |  |  |
| Cc1ccc(-c2cc(/C=C/C(=O)Nc3cccc(OCC4CCNCC4)c3)ccc2O)cc1 | > 50 µM |  |  |  |  |
| COc1cc(/C=C/C(=O)Nc2ccccc2COc2ccc(OC3CCNCC3)cc2)ccc1O |  | 4.42 µM | 14.2 µM | > 50 µM | > 50 µM |
| COc1cc(/C=C/C(=O)Nc2cccc(OCC3CCNCC3)c2)cc(OC)c1OC | > 50 µM |  |  |  |  |

Reference: ChEMBL document CHEMBL4311998, “Design, synthesis and biological evaluation of curcumin analogues as novel LSD1 inhibitors” (Bioorg Med Chem Lett, 2019)
